Measured values as given in ChEMBL document CHEMBL2074364, “Reversal of multidrug resistance of cancer through inhibition of P-glycoprotein by 5-bromotetrandrine” (Cancer Chemother Pharmacol, 2005).

Experiments:
[1] = molecular target: T1, ATP-dependent translocase ABCB1 (Homo sapiens, UniProt P08183); assay: TP_TRANSPORTER: increase in Doxorubicin intracellular accumulation in MCF-7/Dox cells; type: functional, cell-based
[2] = molecular target: T1, ATP-dependent translocase ABCB1; assay: TP_TRANSPORTER: cell accumulation of doxorubicin in MCF-7/Dox cells; type: functional, cell-based

T1 sequence (P08183 whole entry): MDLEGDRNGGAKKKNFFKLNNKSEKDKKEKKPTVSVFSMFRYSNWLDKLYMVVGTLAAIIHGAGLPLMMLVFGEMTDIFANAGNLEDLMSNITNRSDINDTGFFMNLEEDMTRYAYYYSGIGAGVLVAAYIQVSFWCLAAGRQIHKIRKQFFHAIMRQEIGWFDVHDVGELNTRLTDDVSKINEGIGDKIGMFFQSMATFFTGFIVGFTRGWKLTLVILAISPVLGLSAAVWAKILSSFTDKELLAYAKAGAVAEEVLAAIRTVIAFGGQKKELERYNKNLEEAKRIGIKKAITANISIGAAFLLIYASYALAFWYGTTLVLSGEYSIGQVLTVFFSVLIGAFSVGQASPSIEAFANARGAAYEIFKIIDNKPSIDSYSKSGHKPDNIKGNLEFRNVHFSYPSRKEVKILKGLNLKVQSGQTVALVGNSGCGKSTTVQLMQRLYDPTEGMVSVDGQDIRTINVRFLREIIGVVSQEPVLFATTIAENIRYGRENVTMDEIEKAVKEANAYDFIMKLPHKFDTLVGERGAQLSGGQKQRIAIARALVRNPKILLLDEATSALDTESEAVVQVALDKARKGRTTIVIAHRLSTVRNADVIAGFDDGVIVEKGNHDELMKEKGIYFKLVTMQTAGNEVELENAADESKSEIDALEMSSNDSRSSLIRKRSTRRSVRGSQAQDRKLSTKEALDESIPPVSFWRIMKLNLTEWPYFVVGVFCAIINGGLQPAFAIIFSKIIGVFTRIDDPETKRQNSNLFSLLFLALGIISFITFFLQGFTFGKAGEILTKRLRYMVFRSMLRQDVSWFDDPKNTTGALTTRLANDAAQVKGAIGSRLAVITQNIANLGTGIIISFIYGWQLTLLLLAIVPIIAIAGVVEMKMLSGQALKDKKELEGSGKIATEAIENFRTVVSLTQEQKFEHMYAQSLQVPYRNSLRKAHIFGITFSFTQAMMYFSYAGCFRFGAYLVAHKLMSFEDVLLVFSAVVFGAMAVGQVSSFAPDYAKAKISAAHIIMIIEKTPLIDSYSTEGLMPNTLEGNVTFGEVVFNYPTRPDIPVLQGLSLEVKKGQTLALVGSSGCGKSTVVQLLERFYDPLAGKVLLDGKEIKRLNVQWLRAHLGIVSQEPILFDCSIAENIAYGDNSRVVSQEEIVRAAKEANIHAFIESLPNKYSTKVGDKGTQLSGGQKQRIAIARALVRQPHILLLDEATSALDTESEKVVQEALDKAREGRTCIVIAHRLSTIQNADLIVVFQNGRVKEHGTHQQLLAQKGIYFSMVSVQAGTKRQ

Activity [1]: inhibitor [+] | Activity [2]: inhibitor [+]
SMILES: COc1ccc2cc1Oc1ccc(cc1)C[C@@]1(C)c3cc(c(OC)cc3CCN1C)Oc1c(OC)c(OC)c(Br)c3c1[C@](C)(C2)N(C)CC3 [BROMOTETRANDRINE]
